Data taken from the NIST ThermoML archive (doi:10.1021/acs.jced.5b00838).
Numbers after ± are expanded uncertainties.

Assay: excess molar enthalpy (molar enthalpy of mixing); xn = mol fraction of the nth substance listed
Conditions: 100 kPa, Liquid, isothermal titration calorimetry

CCCCCCCOC [1-methoxyheptane] + CC#N
excess molar enthalpy [kcal/mol]
Conditions | 298.15 K | 308.15 K
x2 = 0.0304 | – | 0.0322 ± 0.00055
x2 = 0.0307 | 0.0291 ± 0.000526 | –
x2 = 0.059 | – | 0.0602 ± 0.00086
x2 = 0.0595 | 0.0573 ± 0.000837 | –
x2 = 0.0859 | – | 0.0845 ± 0.00115
x2 = 0.0867 | 0.0816 ± 0.00112 | –
x2 = 0.1114 | – | 0.106 ± 0.00141
x2 = 0.1123 | 0.103 ± 0.00136 | –
x2 = 0.1354 | – | 0.125 ± 0.00165
x2 = 0.1366 | 0.121 ± 0.0016 | –
x2 = 0.1799 | – | 0.156 ± 0.00201
x2 = 0.1813 | 0.151 ± 0.00196 | –
x2 = 0.22 | – | 0.181 ± 0.00232
x2 = 0.2216 | 0.175 ± 0.00225 | –
x2 = 0.2563 | – | 0.201 ± 0.00263
x2 = 0.2582 | 0.194 ± 0.00239 | –
x2 = 0.2894 | – | 0.216 ± 0.00287
x2 = 0.2914 | 0.209 ± 0.00263 | –
x2 = 0.3197 | – | 0.229 ± 0.00287
x2 = 0.3218 | 0.221 ± 0.00287 | –
x2 = 0.3732 | – | 0.248 ± 0.00311
x2 = 0.3754 | 0.239 ± 0.00311 | –
x2 = 0.4188 | – | 0.26 ± 0.00335
x2 = 0.4212 | 0.25 ± 0.00311 | –
x2 = 0.4583 | – | 0.268 ± 0.00335
x2 = 0.4607 | 0.258 ± 0.00335 | –
x2 = 0.5008 | – | 0.273 ± 0.00335
x2 = 0.5033 | 0.263 ± 0.00335 | –
x2 = 0.5372 | – | 0.275 ± 0.00359
x2 = 0.5396 | 0.264 ± 0.00335 | –
x2 = 0.5686 | – | 0.275 ± 0.00335
x2 = 0.571 | 0.264 ± 0.00335 | –
x2 = 0.596 | – | 0.273 ± 0.00335
x2 = 0.5983 | 0.263 ± 0.00335 | –
x2 = 0.6246 | – | 0.269 ± 0.00335
x2 = 0.6269 | 0.259 ± 0.00335 | –
x2 = 0.6494 | – | 0.265 ± 0.00335
x2 = 0.6517 | 0.256 ± 0.00335 | –
x2 = 0.6712 | – | 0.261 ± 0.00335
x2 = 0.6733 | 0.251 ± 0.00311 | –
x2 = 0.6934 | – | 0.255 ± 0.00311
x2 = 0.6955 | 0.246 ± 0.00311 | –
x2 = 0.7111 | 0.239 ± 0.00311 | 0.255 ± 0.00335
x2 = 0.7148 | 0.24 ± 0.00311 | 0.249 ± 0.00311
x2 = 0.7318 | 0.234 ± 0.00287 | 0.248 ± 0.00311
x2 = 0.7322 | 0.232 ± 0.00287 | 0.243 ± 0.00311
x2 = 0.7469 | 0.228 ± 0.00287 | 0.238 ± 0.00311
x2 = 0.7547 | 0.223 ± 0.00287 | 0.237 ± 0.00311
x2 = 0.7604 | 0.223 ± 0.00287 | 0.231 ± 0.00287
x2 = 0.7692 | – | 0.227 ± 0.00287
x2 = 0.7786 | 0.212 ± 0.00263 | –
x2 = 0.7954 | – | 0.213 ± 0.00263
x2 = 0.8041 | 0.199 ± 0.00263 | –
x2 = 0.8236 | – | 0.195 ± 0.00239
x2 = 0.8313 | 0.182 ± 0.00234 | –
x2 = 0.8414 | – | 0.182 ± 0.00234
x2 = 0.8485 | 0.171 ± 0.0022 | –
x2 = 0.86 | – | 0.168 ± 0.00217
x2 = 0.8664 | 0.157 ± 0.00203 | –
x2 = 0.8795 | – | 0.151 ± 0.00196
x2 = 0.8851 | 0.141 ± 0.00184 | –
x2 = 0.8999 | – | 0.131 ± 0.00172
x2 = 0.9047 | 0.123 ± 0.00163 | –
x2 = 0.9212 | – | 0.109 ± 0.00146
x2 = 0.9251 | 0.101 ± 0.00136 | –
x2 = 0.936 | – | 0.0913 ± 0.00124
x2 = 0.9391 | 0.0851 ± 0.00117 | –
x2 = 0.9512 | – | 0.0721 ± 0.00103
x2 = 0.9536 | 0.0668 ± 0.000956 | –
x2 = 0.9669 | – | 0.0506 ± 0.000789
x2 = 0.9686 | 0.0464 ± 0.000741 | –
x2 = 0.9832 | – | 0.0265 ± 0.000526
x2 = 0.9841 | 0.0235 ± 0.000502 | –

CCCCCCOCC [1-ethoxyhexane] + CC#N
Conditions | excess molar enthalpy [kcal/mol]
298.15 K, x2 = 0.0307 | 0.028 ± 0.000526
298.15 K, x2 = 0.0596 | 0.0608 ± 0.000884
298.15 K, x2 = 0.0868 | 0.0887 ± 0.00122
298.15 K, x2 = 0.1125 | 0.112 ± 0.00148
298.15 K, x2 = 0.1368 | 0.132 ± 0.00174
298.15 K, x2 = 0.1816 | 0.166 ± 0.00213
298.15 K, x2 = 0.222 | 0.192 ± 0.00239
298.15 K, x2 = 0.2586 | 0.212 ± 0.00263
298.15 K, x2 = 0.2919 | 0.228 ± 0.00287
298.15 K, x2 = 0.3223 | 0.241 ± 0.00311
298.15 K, x2 = 0.3759 | 0.26 ± 0.00335
298.15 K, x2 = 0.4217 | 0.271 ± 0.00335
298.15 K, x2 = 0.4612 | 0.278 ± 0.00359
298.15 K, x2 = 0.5038 | 0.282 ± 0.00359
298.15 K, x2 = 0.5401 | 0.283 ± 0.00359
298.15 K, x2 = 0.5715 | 0.282 ± 0.00359
298.15 K, x2 = 0.5988 | 0.279 ± 0.00359
298.15 K, x2 = 0.6274 | 0.275 ± 0.00359
298.15 K, x2 = 0.6521 | 0.27 ± 0.00335
298.15 K, x2 = 0.6738 | 0.265 ± 0.00335
298.15 K, x2 = 0.6959 | 0.258 ± 0.00335
298.15 K, x2 = 0.7006 | 0.255 ± 0.00311
298.15 K, x2 = 0.7152 | 0.251 ± 0.00311
298.15 K, x2 = 0.7222 | 0.247 ± 0.00311
298.15 K, x2 = 0.7322 | 0.245 ± 0.00311
298.15 K, x2 = 0.7452 | 0.238 ± 0.00311
298.15 K, x2 = 0.7473 | 0.239 ± 0.00311
298.15 K, x2 = 0.7608 | 0.232 ± 0.00287
298.15 K, x2 = 0.7698 | 0.226 ± 0.00287
298.15 K, x2 = 0.796 | 0.212 ± 0.00263
298.15 K, x2 = 0.8241 | 0.194 ± 0.00239
298.15 K, x2 = 0.8419 | 0.182 ± 0.00234
298.15 K, x2 = 0.8604 | 0.167 ± 0.00215
298.15 K, x2 = 0.8799 | 0.151 ± 0.00196
298.15 K, x2 = 0.9002 | 0.131 ± 0.00172
298.15 K, x2 = 0.9215 | 0.108 ± 0.00146
298.15 K, x2 = 0.9362 | 0.091 ± 0.00124
298.15 K, x2 = 0.9514 | 0.0718 ± 0.00103
298.15 K, x2 = 0.967 | 0.0504 ± 0.000789
298.15 K, x2 = 0.9832 | 0.0264 ± 0.000526
308.15 K, x2 = 0.0303 | 0.0333 ± 0.000574
308.15 K, x2 = 0.0588 | 0.0672 ± 0.000956
308.15 K, x2 = 0.0857 | 0.0959 ± 0.00129
308.15 K, x2 = 0.1111 | 0.121 ± 0.0016
308.15 K, x2 = 0.1352 | 0.142 ± 0.00184
308.15 K, x2 = 0.1795 | 0.177 ± 0.00227
308.15 K, x2 = 0.2196 | 0.204 ± 0.00263
308.15 K, x2 = 0.2559 | 0.226 ± 0.00287
308.15 K, x2 = 0.2889 | 0.242 ± 0.00311
308.15 K, x2 = 0.3192 | 0.256 ± 0.00335
308.15 K, x2 = 0.3726 | 0.275 ± 0.00359
308.15 K, x2 = 0.4182 | 0.287 ± 0.00359
308.15 K, x2 = 0.4577 | 0.294 ± 0.00359
308.15 K, x2 = 0.5002 | 0.298 ± 0.00382
308.15 K, x2 = 0.5366 | 0.299 ± 0.00382
308.15 K, x2 = 0.568 | 0.297 ± 0.00382
308.15 K, x2 = 0.5954 | 0.294 ± 0.00382
308.15 K, x2 = 0.6241 | 0.29 ± 0.00359
308.15 K, x2 = 0.6489 | 0.285 ± 0.00359
308.15 K, x2 = 0.6707 | 0.279 ± 0.00359
308.15 K, x2 = 0.6929 | 0.272 ± 0.00335
308.15 K, x2 = 0.7087 | 0.264 ± 0.00335
308.15 K, x2 = 0.7123 | 0.265 ± 0.00335
308.15 K, x2 = 0.7294 | 0.258 ± 0.00335
308.15 K, x2 = 0.73 | 0.256 ± 0.00335
308.15 K, x2 = 0.7446 | 0.251 ± 0.00311
308.15 K, x2 = 0.7526 | 0.246 ± 0.00311
308.15 K, x2 = 0.7582 | 0.245 ± 0.00311
308.15 K, x2 = 0.7767 | 0.233 ± 0.00287
308.15 K, x2 = 0.8023 | 0.217 ± 0.00287
308.15 K, x2 = 0.8297 | 0.198 ± 0.00263
308.15 K, x2 = 0.847 | 0.185 ± 0.00237
308.15 K, x2 = 0.8651 | 0.17 ± 0.0022
308.15 K, x2 = 0.884 | 0.152 ± 0.00198
308.15 K, x2 = 0.9037 | 0.132 ± 0.00172
308.15 K, x2 = 0.9243 | 0.108 ± 0.00146
308.15 K, x2 = 0.9385 | 0.0909 ± 0.00124
308.15 K, x2 = 0.9531 | 0.0718 ± 0.00103
308.15 K, x2 = 0.9683 | 0.0503 ± 0.000789
308.15 K, x2 = 0.9839 | 0.0263 ± 0.000526
